# Literature values as cited in patent US9186326B2 (Kimia Zist Parsian (KZP), priority 2014, dated 2015).
# Tested on: glucocorticoid effect
substance,measurement,setting,value
Dexamethasone,mineral corticoid effect,,minimal mineral corticoid effect
same,potency relative to cortisol in glucocorticoid effect,versus cortisol,twenty five
